Source: patent US20220169598A1, “HALOGENATED PHENYLSULFONAMIDE HYDROXAMIC ACID COMPOUNDS, COMPOSITIONS AND USES THEREOF AS SELECTIVE HDAC6 INHIBITORS” (2681603 ONTARIO INC., priority 2019, published 2022)
One block for each compound: values may come before it.

Legend:
HeLa cells = experiment: Immunofluorescence analysis of α-tubulin and histone H3 acetylation; type: cell-based; conditions: 6 h treatment
Text: Similar analysis is shown for exemplary compound I-34 in FIG. 19.

panel of 97 kinases = experiment: Kinome screen; type: biochemical; conditions: kinase screen
[1] = Kinetic solubility by analytical HPLC; type: physicochemical; conditions: PBS with 5% (v/v) DMSO, aqueous with cosolvent or surfactant or cyclodextrin, kinetic from dmso stock; PBS + 5% DMSO; initial concentration 300 μM; read-out: Saturation Concentration
Protocol: The initial concentration of each exemplary compound was 300 μM.

MCF-7 = experiment: Cytotoxicity in cell lines; type: cell-based; conditions: Homo sapiens, MCF7; Table 4
Protocol: (§1) The cytotoxicity of exemplary compounds of the application was tested in multiple cell lines including MV-4-11, MOLM-13, MCF-7, MRC9, K562 and MM.1S. The therapeutic index was evaluated by determining the toxicity of the exemplary compounds in healthy cell lines including fibroblasts and HUVEC.

MV-4-11 = experiment: Cytotoxicity in cell lines; type: cell-based; conditions: Homo sapiens, MV4-11, Table 4; read-out: IC50 MV-411
Protocol: as §1

MOLM-13 = experiment: Cytotoxicity in cell lines; type: cell-based; conditions: Homo sapiens, MOLM-13; Table 4; read-out: IC50 MOLM-13
Protocol: as §1

HDAC2 = HDAC2 (Homo sapiens, UniProt Q92769); experiment: in vitro activity-based HDAC assay; type: biochemical; conditions: human HDAC isoform panel, Table 1
Protocol: (§2) The exemplary compounds of Formula I and structurally related compounds were synthesized to assess their structure-activity relationship. […] The IC50 values for each exemplary compound were used to calculate the selectivity of the exemplary compounds for Formula I to HDAC6. The selectivity of each exemplary compound for HDAC6 was determined from examining the potency of HDAC6 in relation to the highest binding affinity of the other HDAC isoforms tested.

HDAC10 = target: T1, HDAC10 (Homo sapiens, UniProt Q969S8); experiment: in vitro activity-based HDAC assay; type: biochemical; conditions: human HDAC isoform panel, Table 1
T1 sequence (Q969S8 1-669): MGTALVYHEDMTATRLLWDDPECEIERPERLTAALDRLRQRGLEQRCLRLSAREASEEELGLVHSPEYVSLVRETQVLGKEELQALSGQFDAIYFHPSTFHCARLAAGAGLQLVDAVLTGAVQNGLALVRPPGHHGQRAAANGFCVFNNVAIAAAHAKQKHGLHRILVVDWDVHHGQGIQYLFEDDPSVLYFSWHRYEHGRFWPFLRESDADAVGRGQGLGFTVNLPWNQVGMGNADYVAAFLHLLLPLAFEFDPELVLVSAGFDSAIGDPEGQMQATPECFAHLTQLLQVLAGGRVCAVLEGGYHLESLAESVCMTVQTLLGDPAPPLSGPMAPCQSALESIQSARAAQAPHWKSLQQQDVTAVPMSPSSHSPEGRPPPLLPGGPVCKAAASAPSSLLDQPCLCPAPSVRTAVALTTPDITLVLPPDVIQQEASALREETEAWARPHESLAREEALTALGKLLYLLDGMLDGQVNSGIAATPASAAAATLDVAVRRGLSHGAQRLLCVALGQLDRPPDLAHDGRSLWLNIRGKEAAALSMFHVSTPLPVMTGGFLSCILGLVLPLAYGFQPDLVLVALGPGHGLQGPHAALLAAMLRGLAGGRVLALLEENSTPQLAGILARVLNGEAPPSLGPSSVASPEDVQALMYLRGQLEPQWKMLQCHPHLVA
Protocol: as §2

HDAC9 = HDAC9 (Homo sapiens, UniProt Q9UKV0); experiment: in vitro activity-based HDAC assay; type: biochemical; conditions: human HDAC isoform panel, Table 1
Protocol: as §2

HDAC7 = target: T2, HDAC7 (Homo sapiens, UniProt Q8WUI4); experiment: in vitro activity-based HDAC assay; type: biochemical; conditions: human HDAC isoform panel, Table 1
T2 sequence (Q8WUI4 1-952): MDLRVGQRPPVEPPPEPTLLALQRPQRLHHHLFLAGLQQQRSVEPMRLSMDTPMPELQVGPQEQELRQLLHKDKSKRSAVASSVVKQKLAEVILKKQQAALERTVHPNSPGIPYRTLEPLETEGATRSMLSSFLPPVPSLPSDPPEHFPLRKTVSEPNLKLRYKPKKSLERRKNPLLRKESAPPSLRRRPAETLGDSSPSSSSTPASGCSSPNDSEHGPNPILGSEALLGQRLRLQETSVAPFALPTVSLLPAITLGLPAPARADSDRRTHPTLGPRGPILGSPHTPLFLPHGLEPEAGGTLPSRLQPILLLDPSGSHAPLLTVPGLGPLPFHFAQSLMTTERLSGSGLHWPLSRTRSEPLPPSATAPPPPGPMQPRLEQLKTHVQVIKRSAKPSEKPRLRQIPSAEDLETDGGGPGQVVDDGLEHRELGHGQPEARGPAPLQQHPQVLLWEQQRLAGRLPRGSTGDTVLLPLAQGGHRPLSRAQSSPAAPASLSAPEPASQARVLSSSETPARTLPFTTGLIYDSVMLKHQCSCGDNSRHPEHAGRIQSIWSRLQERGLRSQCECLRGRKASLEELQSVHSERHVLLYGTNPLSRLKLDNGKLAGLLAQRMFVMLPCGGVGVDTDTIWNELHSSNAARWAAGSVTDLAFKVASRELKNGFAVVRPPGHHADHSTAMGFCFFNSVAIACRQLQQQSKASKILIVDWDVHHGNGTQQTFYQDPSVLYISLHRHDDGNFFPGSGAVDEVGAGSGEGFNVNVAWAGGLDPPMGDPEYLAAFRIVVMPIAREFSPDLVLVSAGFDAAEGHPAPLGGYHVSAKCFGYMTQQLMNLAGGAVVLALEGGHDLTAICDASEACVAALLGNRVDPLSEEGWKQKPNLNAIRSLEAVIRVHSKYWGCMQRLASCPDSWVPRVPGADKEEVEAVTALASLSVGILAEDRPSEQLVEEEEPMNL
Protocol: as §2

HDAC4 = HDAC4 (Homo sapiens, UniProt P56524); experiment: in vitro activity-based HDAC assay; type: biochemical; conditions: human HDAC isoform panel, Table 1
Protocol: as §2

HDAC5 = HDAC5 (Homo sapiens, UniProt Q9UQL6); experiment: in vitro activity-based HDAC assay; type: biochemical; conditions: human HDAC isoform panel, Table 1
Protocol: as §2

HDAC1 = HDAC1 (Homo sapiens, UniProt Q13547); experiment: in vitro activity-based HDAC assay; type: biochemical; conditions: human HDAC isoform panel, Table 1
Protocol: as §2

MM.1S = experiment: Cytotoxicity in cell lines; type: cell-based; conditions: Homo sapiens, MM1.S; Table 4
Protocol: as §1

MRC9 = experiment: Cytotoxicity in cell lines; type: cell-based; conditions: Table 4
Protocol: as §1

Chain of HDAC1 (Q13547 whole entry, canonical isoform): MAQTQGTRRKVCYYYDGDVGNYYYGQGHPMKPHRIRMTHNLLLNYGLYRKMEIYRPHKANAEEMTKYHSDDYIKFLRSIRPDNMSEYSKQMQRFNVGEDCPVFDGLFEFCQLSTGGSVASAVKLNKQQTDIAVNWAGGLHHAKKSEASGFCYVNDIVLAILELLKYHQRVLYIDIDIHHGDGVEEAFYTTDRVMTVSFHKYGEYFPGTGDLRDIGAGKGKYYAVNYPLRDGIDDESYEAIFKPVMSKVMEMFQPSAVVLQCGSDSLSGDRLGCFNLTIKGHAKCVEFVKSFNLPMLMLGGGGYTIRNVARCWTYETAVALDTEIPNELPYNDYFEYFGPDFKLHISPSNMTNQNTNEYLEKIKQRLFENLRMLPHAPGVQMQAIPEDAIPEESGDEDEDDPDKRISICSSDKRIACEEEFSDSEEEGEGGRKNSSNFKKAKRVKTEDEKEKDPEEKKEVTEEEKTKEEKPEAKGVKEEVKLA
Chain of HDAC4 (P56524 whole entry, canonical isoform): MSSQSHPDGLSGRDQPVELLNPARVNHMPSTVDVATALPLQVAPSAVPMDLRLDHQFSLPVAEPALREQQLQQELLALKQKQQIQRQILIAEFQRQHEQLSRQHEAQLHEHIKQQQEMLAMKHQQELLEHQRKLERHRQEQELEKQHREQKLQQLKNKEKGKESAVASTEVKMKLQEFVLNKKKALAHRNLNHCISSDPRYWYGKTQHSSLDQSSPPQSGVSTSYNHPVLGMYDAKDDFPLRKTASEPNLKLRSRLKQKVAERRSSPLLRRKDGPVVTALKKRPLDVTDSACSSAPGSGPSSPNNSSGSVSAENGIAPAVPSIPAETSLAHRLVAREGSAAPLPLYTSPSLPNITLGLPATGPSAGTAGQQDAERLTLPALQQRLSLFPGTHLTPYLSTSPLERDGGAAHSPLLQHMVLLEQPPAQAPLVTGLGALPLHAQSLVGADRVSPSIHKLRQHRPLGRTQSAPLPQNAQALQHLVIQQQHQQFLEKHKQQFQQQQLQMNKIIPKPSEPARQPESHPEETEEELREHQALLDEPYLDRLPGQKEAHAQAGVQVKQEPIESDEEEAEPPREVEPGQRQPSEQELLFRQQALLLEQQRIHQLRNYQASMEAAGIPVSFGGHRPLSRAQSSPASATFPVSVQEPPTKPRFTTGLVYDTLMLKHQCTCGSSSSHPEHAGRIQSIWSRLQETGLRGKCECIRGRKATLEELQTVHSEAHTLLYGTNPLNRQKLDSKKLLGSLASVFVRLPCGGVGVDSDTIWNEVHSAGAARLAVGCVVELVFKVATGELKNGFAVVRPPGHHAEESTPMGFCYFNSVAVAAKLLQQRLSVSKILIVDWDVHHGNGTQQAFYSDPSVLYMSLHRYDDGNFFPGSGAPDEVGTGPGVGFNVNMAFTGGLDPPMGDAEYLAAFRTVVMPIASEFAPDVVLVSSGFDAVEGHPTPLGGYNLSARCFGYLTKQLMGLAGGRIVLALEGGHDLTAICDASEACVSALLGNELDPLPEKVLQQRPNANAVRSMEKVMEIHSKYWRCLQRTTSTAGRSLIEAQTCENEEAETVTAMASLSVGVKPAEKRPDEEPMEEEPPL
Chain of HDAC9 (Q9UKV0 whole entry, canonical isoform): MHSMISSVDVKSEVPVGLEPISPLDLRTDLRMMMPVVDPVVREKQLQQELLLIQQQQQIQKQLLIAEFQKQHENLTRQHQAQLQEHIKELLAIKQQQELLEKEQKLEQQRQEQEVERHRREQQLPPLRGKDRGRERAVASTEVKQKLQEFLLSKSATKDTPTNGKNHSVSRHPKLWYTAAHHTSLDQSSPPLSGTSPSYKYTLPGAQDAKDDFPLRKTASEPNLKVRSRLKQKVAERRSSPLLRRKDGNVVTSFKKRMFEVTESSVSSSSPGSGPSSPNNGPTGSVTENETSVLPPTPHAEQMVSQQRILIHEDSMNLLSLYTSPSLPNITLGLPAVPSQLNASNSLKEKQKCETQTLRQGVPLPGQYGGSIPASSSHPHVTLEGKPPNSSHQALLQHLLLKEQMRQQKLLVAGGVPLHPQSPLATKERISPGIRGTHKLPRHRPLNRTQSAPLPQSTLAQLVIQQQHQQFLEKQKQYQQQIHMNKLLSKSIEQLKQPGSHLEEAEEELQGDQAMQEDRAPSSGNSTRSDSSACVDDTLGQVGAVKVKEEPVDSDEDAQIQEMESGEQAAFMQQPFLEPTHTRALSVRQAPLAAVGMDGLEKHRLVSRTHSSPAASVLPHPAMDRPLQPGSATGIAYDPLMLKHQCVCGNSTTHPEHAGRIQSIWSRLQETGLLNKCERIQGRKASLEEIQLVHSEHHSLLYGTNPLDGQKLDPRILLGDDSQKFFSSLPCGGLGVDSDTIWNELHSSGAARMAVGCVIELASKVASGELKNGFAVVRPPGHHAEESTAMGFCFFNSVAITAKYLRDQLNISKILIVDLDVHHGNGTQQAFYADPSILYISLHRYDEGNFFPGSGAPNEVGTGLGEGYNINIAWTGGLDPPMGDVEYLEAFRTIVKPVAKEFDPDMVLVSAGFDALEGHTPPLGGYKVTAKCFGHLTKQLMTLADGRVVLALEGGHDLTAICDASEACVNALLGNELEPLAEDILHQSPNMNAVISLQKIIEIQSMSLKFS
Chain of HDAC2 (Q92769 whole entry, canonical isoform): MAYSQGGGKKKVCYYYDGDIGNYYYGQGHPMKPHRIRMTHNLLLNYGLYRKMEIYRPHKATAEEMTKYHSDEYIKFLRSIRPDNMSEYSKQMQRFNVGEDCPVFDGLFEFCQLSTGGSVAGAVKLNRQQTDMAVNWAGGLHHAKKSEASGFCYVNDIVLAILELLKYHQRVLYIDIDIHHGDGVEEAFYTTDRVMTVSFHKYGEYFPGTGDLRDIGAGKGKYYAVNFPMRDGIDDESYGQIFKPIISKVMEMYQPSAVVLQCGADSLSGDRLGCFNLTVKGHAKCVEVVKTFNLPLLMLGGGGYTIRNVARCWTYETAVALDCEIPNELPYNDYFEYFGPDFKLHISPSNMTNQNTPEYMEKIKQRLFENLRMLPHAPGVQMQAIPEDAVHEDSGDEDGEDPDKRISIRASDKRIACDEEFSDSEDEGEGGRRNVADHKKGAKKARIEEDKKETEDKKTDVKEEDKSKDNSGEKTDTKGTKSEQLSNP
Chain of HDAC5 (Q9UQL6 whole entry, canonical isoform): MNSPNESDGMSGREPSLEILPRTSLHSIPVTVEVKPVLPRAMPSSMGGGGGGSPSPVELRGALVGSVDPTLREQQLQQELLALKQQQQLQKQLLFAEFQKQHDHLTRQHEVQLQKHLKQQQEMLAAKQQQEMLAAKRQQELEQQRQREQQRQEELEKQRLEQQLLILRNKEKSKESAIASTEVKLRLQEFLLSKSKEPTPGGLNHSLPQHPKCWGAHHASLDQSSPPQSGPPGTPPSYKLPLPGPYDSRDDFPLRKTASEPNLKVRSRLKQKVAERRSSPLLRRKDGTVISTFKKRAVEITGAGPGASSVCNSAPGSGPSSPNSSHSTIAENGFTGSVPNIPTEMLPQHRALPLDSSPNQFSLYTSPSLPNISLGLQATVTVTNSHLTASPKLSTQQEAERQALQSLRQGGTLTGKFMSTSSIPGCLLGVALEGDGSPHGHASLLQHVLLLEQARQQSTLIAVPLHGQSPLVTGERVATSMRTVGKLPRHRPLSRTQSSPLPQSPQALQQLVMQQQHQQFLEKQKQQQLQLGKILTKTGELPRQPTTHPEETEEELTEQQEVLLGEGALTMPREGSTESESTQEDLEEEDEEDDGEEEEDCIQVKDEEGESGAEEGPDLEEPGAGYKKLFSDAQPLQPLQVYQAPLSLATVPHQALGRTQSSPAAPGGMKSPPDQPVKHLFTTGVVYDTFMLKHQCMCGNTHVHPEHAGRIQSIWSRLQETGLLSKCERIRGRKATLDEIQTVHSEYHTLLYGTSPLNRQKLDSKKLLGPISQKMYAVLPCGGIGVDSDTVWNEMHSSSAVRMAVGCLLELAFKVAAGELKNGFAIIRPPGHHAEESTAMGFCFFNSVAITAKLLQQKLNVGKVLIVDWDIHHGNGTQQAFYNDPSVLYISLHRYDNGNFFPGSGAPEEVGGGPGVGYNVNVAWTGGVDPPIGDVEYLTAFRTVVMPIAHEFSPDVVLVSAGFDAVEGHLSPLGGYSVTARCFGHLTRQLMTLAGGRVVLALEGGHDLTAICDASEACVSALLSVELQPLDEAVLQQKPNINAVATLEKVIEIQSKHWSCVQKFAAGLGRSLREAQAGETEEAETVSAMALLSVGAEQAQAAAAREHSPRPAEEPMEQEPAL

Structure (SMILES): O=C(CCCCCCNC(=O)c1cnc(N(c2ccccc2)c2ccccc2Cl)nc1)NO [Citarinostat, reference compound]
effect on α-tubulin acetylation (immunofluorescence) (HeLa cells): no preferential acetylation on α-tubulin until high concentrations

solubility kinetic [1]: 74.5 ± 3 µM
Structure (SMILES): CC(C)N(Cc1ccc(C(=O)NO)cc1)S(=O)(=O)c1cc(F)c(F)c(F)c1F [Compound I-12, N-hydroxy-4-((2,3,4,5-tetrafluoro-N-isopropylphenylsulfonamido)methyl)benzamide]
inhibitory activity on a panel of 97 kinases (panel of 97 kinases): limited to no inhibitory activity

Structure (SMILES): O=C(NO)c1ccc(CN(Cc2cccnc2)S(=O)(=O)c2cc(F)c(F)c(F)c2F)c(C(F)(F)F)c1 [Compound I-31, N-hydroxy-4-((2,3,4,5-tetrafluoro-N-(pyridin-3-ylmethyl)phenylsulfonamido)methyl)-3-(trifluoromethyl)benzamide]
IC50 (MCF-7): 5000 nM | IC50 (MV-4-11): 3400 nM | IC50 (MOLM-13): 1600 nM

IC50 (HDAC2): > 1000 nM | IC50 (HDAC10): > 1000 nM | IC50 (HDAC9): > 1000 nM | IC50 (HDAC7): > 1000 nM | IC50 (HDAC4): > 1000 nM | IC50 (HDAC5): > 1000 nM | IC50 (HDAC1): > 1000 nM
Structure (SMILES): CC(C)N(Cc1ccc(C(=O)NO)cc1F)S(=O)(=O)c1cc(F)c(F)c(F)c1F [Compound I-50, 3-fluoro-N-hydroxy-4-(((2,3,4,5-tetrafluoro-N-isopropylphenyl)sulfonamido)methyl)benzamide]
IC50 (MV-4-11): 1600 nM | IC50 (MM.1S): 1200 nM | IC50 (MRC9): > 50000 nM
